In patent publication US11214594B2, “Antimicrobial peptide having synergistic antibacterial effect with antibiotics on multidrug resistant bacteria, and use thereof” (priority 2016, dated 2022):
Where a SMILES comes first, the peptide text is derived from it. [ ]: non-standard residue; d: D form.

Experiments:
[1] = tested on: MDRAB 12035; experiment: MIC of antibiotic during combined treatment with antimicrobial peptide; assay type: cell-based, Acinetobacter baumannii
How it was run: (§1)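 Broth microdilution in MH medium; strains were diluted to 2×10^6 CFU per ml before plating. Peptide was serially diluted stepwise at 2:1 starting from its MIC, and MH-diluted antibiotic was then added to determine MIC. The reversed arrangement was also tested.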

[2] = tested on: MDRST 8007; experiment: Minimal inhibitory concentration (MIC), single agent; assay type: cell-based, Salmonella typhimurium; conditions: agent alone
How it was run: (§2)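 Broth microdilution in MH medium: bacterial strains diluted to 2×10^6 CFU were mixed with equal volumes of peptide serially diluted twofold in MH medium.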

[3] = tested on: MDRPA 2002; assay type: cell-based, Pseudomonas aeruginosa
How it was run: as §2

[4] = tested on: MDRPA 2003; assay type: cell-based, Pseudomonas aeruginosa
How it was run: as §2

[5] = tested on: MDRAB 12035; experiment: MIC of antimicrobial peptide during combined treatment with antibiotic; assay type: cell-based, Acinetobacter baumannii
How it was run: as §1

[6] = tested on: A. baumannii; experiment: as above; assay type: cell-based, Acinetobacter baumannii
How it was run: as §1

[7] = tested on: MDRST 8009; assay type: cell-based, Salmonella typhimurium; conditions: agent alone
How it was run: as §2

[8] = tested on: S. epidermidis; experiment: microbe, parasite or virus in culture; assay type: cell-based, Staphylococcus epidermidis
How it was run: as §2

[9] = tested on: MDREC 1238; assay type: cell-based, Escherichia coli
How it was run: as §2

[10] = tested on: B. subtilis; experiment: microbe, parasite or virus in culture; assay type: cell-based, Bacillus subtilis
How it was run: as §2

[11] = peptide treatment concentration 2 μg/ml
[12] = peptide treatment concentration 4 μg/ml
[13] = peptide treatment concentration 6 μg/ml
[14] = peptide treatment concentration 8 μg/ml
[15] = peptide treatment concentration 16 μg/ml
[16] = peptide treatment concentration 32 μg/ml
[17] = peptide treatment concentration 64 μg/ml
[18] = erythromycin 4 μg/ml (Conc./MIC 1/8)
[19] = erythromycin 8 μg/ml (Conc./MIC 1/4)
[20] = erythromycin 16 μg/ml (Conc./MIC 1/2)
[21] = erythromycin 32 μg/ml (Conc./MIC 1)
[22] = vancomycin 512 μg/ml (Conc./MIC 1/2)
[23] = vancomycin 1024 μg/ml (Conc./MIC 1)

CC[C@H](C)[C@H](NC(=O)[C@H](CCCCN)NC(=O)[C@H](Cc1c[nH]c2ccccc12)NC(=O)[C@@H](N)CCCNC(=N)N)C(=O)N[C@@H](Cc1ccccc1)C(=O)N[C@@H](CCCCN)C(=O)N[C@@H](CCCCN)C(=O)N[C@H](C(=O)N[C@H](CC(C)C)C(=O)N[C@@H](CCCCN)C(=O)N[C@@H](CC(C)C)C(=O)N[C@@H](CC(C)C)C(=O)N[C@@H](Cc1c[nH]cn1)C(=O)N[C@@H](CCC(=O)O)C(=O)N[C@@H](Cc1ccccc1)C(=O)N[C@@H](CCCCN)C(=O)N[C@@H](CCCCN)C(=O)N[C@@H](Cc1ccccc1)C(N)=O)[C@@H](C)CC [PapMA-23, RWK IFK KIl KLL HEF KKF-NH2] (H-RWKIFKKI[dL]KLLHEFKKF-NH2; N-terminus assumed)
1 µg/mL: Erythromycin MIC during combined treatment with peptide [1, 14] | Peptide MIC during treatment with linezolid ([5]; linezolid […] (Conc./MIC 1/2)) | Peptide MIC during treatment with vancomycin [5, 23] | Peptide MIC during treatment with linezolid ([6]; linezolid […] (Conc./MIC 1/2))
32 µg/mL: Linezolid MIC during combined treatment with peptide [1, 13] | Vancomycin MIC during combined treatment with peptide [1, 13] | Minimal inhibitory concentration MIC [7] | Minimal inhibitory concentration MIC [9]
0 µg/mL: Erythromycin MIC during combined treatment with peptide [1, 16] | Linezolid MIC during combined treatment with peptide [1, 16] | Vancomycin MIC during combined treatment with peptide [1, 16] | Erythromycin MIC during combined treatment with peptide [1, 17] | Linezolid MIC during combined treatment with peptide [1, 17] | Vancomycin MIC during combined treatment with peptide [1, 17] | Peptide MIC during treatment with erythromycin [5, 21] | Peptide MIC during treatment with linezolid ([5]; linezolid 512 μg/ml (Conc./MIC 1)) | Peptide MIC during treatment with erythromycin [6, 21] | Peptide MIC during treatment with linezolid ([6]; linezolid […] (Conc./MIC 1)) | Peptide MIC during treatment with vancomycin [6, 23]
64 µg/mL: Linezolid MIC during combined treatment with peptide [1, 12] | Minimal inhibitory concentration MIC [2] | Minimal inhibitory concentration MIC [3] | Minimal inhibitory concentration MIC [4]
4 µg/mL: Erythromycin MIC during combined treatment with peptide [1, 13] | Linezolid MIC during combined treatment with peptide [1, 15] | Peptide MIC during treatment with erythromycin [5, 20] | Peptide MIC during treatment with linezolid ([5]; linezolid 64 μg/ml (Conc./MIC 1/8)) | Peptide MIC during treatment with linezolid ([5]; linezolid […] (Conc./MIC 1/4)) | Peptide MIC during treatment with vancomycin ([5]; vancomycin […] (Conc./MIC 1/4)) | Peptide MIC during treatment with vancomycin ([5]; vancomycin […] (Conc./MIC 1/8)) | Peptide MIC during treatment with erythromycin [6, 19] | Peptide MIC during treatment with erythromycin [6, 20] | Peptide MIC during treatment with linezolid ([6]; linezolid 64 μg/ml (Conc./MIC 1/4)) | Peptide MIC during treatment with vancomycin ([6]; vancomycin […] (Conc./MIC 1/8))
16 µg/mL: Erythromycin MIC during combined treatment with peptide [1, 12] | Linezolid MIC during combined treatment with peptide [1, 14] | Vancomycin MIC during combined treatment with peptide [1, 14]
8 µg/mL: Vancomycin MIC during combined treatment with peptide [1, 15] | Peptide MIC during treatment with erythromycin [5, 18] | Peptide MIC during treatment with erythromycin [5, 19] | Peptide MIC during treatment with erythromycin [6, 18] | Peptide MIC during treatment with linezolid ([6]; linezolid 32 μg/ml (Conc./MIC 1/8))
128 µg/mL: Vancomycin MIC during combined treatment with peptide [1, 12]
0.5 µg/mL: Peptide MIC during treatment with vancomycin ([6]; vancomycin […] (Conc./MIC 1/4))
0.25 µg/mL: Erythromycin MIC during combined treatment with peptide [1, 15] | Peptide MIC during treatment with vancomycin [6, 22]
2 µg/mL: Peptide MIC during treatment with vancomycin [5, 22]
>128 µg/mL: Linezolid MIC during combined treatment with peptide [1, 11] | Vancomycin MIC during combined treatment with peptide [1, 11] | Minimal inhibitory concentration MIC [8] | Minimal inhibitory concentration MIC [10]
